Assay results from ChEMBL document CHEMBL5528088, “Design and Synthesis of Cyclolipopeptide Mimics of Dysoxylactam A and Evaluation of the Reversing Potencies against P-Glycoprotein-Mediated Multidrug Resistance” (J Med Chem, 2024).
Structures can show the parent of a compound that is named as a salt. The source made the active and inactive calls. No cut-off for these calls is given here.

Columns and labels:
NCI/ADR-RES [1] = experiment: Reversal effect on P-gp-mediated multidrug resistance in human NCI/ADR-RES cells assessed as inhibition of cell proliferation incubated for 72 hrs by SRB assay; format: functional, cell-based
KBv200 [2] = experiment: Reversal effect on P-gp-mediated multidrug resistance in human KBv200 cells assessed as inhibition of cell proliferation incubated for 72 hrs by SRB assay; format: functional, cell-based; conditions: KBv200, 72 h
KBv200 [3] = experiment: Inhibition of cell proliferation in human KBv200 cells at 10 uM incubated for 72 hrs by SRB assay relative to control; format: functional
KBv200 [4] = experiment: Inhibition of cell proliferation in human KBv200 cells incubated for 72 hrs by SRB assay; format: functional, cell-based; conditions: KBv200, 72 h
KBv200 [5] = experiment: Antitumor activity against human KBv200 cells xenografted in Balb/cA nude mouse assessed as decrease in tumor size at 8 mg/kg, iv administered on day 0,4,8 and measured for 14 days; format: functional, organism-based; conditions: time 14.0 day
KBv200 [6] = experiment: Reversal fold, ratio of VNR IC50 to VNR IC50 in presence of test compound for human KBv200 cells incubated for 72 hrs by SRB assay; format: functional
KBv200 [7] = experiment: Inhibition of cell proliferation in human KBv200 cells assessed as inhibition of VNR at 10 uM incubated for 72 hrs in presence of VNR by SRB assay relative to control; format: functional
KBv200 [8] = experiment: Cytotoxicity against human KBv200 cells at 10 uM incubated for 72 hrs by SRB assay relative to control; format: functional
KBv200 [9] = experiment: Inhibition of ADR uptake in human KBv200 cells at 10 uM incubated for 10 mins by fluorescence microscopy; format: functional, cell-based
NCI/ADR-RES [10] = experiment: Reversal fold, ratio of ADR IC50 to ADR IC50 in presence of test compound for reversal effect on P-gp-mediated multidrug resistance in human NCI/ADR-RES cells incubated for 72 hrs by SRB assay; format: functional
[11] = Inhibition of ADR efflux in human KBv200 cells assessed as ADR accumulation at 1 uM incubated for 3 hrs by flow cytometry (reference value: 25.7 %); format: functional; parameters: scale not given: the % may be the effect or the level left
NCI/ADR-RES [12] = experiment: Reversal fold, ratio of PTX IC50 to PTX IC50 in presence of test compound for reversal effect on P-gp-mediated multidrug resistance in human NCI/ADR-RES cells incubated for 72 hrs by SRB assay; format: functional
KBv200 [13] = experiment: Inhibition of Rho-123 uptake in human KBv200 cells at 10 uM incubated for 10 mins by flow cytometry; format: functional, cell-based
KBv200 [14] = experiment: Reversal fold, ratio of VNR IC50 to VNR IC50 in presence of test compound for reversal effect on P-gp-mediated multidrug resistance in human KBv200 cells incubated for 72 hrs by SRB assay; format: functional
KBv200 [15] = experiment: Reversal fold, ratio of PTX IC50 to PTX IC50 in presence of test compound for reversal effect on P-gp-mediated multidrug resistance in human KBv200 cells incubated for 72 hrs by SRB assay; format: functional
[16] = target: Multidrug resistance-associated protein 1 (Homo sapiens, UniProt P33527); experiment: Inhibition of MRP1 (unknown origin) expressed in HEK293 cells assessed as increase in mitoxantrone accumulation by flow cytometry; format: cell-based
KBv200 [17] = experiment: Inhibition of ADR uptake in human KBv200 cells at 10 uM incubated for 10 mins by flow cytometry; format: functional, cell-based
[18] = Inhibition of ADR uptake in human KBv200 cells assessed as ADR accumulation at 1 uM incubated for 10 mins by flow cytometry (reference value: 6.2 %); format: functional; parameters: scale not given: the % may be the effect or the level left
[19] = target: T1, Broad substrate specificity ATP-binding cassette transporter ABCG2 (Homo sapiens, UniProt Q9UNQ0); experiment: Inhibition of BCRP (unknown origin) expressed in HEK293 cells assessed as increase in mitoxantrone accumulation by flow cytometry; format: cell-based
T1 sequence (Q9UNQ0 whole entry): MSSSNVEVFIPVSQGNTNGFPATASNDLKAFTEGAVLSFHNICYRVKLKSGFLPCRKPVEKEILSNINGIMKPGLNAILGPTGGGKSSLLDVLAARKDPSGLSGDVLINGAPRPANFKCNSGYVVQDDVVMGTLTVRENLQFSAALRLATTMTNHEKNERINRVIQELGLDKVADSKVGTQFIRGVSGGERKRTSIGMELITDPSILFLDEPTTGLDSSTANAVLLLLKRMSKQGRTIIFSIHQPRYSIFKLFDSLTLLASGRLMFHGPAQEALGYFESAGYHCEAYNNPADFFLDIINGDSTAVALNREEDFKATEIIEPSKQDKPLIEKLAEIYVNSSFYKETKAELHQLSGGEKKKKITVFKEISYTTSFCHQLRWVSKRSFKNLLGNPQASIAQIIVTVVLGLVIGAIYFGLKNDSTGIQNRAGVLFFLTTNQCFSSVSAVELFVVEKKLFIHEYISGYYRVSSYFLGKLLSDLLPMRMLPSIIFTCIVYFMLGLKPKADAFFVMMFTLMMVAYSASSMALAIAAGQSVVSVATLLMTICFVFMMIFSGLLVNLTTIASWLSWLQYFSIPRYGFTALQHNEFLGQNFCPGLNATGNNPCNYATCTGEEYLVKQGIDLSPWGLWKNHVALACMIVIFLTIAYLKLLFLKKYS

[20] = Inhibition of ADR uptake in human KBv200 cells assessed as ADR accumulation at 10 uM incubated for 10 mins by flow cytometry (reference value: 6.2 %); format: functional; parameters: scale not given: the % may be the effect or the level left
NCI/ADR-RES [21] = experiment: Reversal fold, ratio of VNR IC50 to VNR IC50 in presence of test compound for reversal effect on P-gp-mediated multidrug resistance in human NCI/ADR-RES cells incubated for 72 hrs by SRB assay; format: functional
KBv200 [22] = experiment: Effect on P-gp level in human KBv200 cells incubated for 24 hrs by qRT-PCR analysis; format: functional, cell-based
KBv200 [23] = experiment: Inhibition of calcein AM uptake in human KBv200 cells at 10 uM incubated for 10 mins by flow cytometry; format: functional, cell-based
KBv200 [24] = experiment: Inhibition of ADR efflux in human KBv200 cells incubated for 3 hrs by fluorescence microscopy; format: functional, cell-based
KBv200 [25] = experiment: Reversal fold, ratio of ADR IC50 to ADR IC50 in presence of test compound for reversal effect on P-gp-mediated multidrug resistance in human KBv200 cells incubated for 72 hrs by SRB assay; format: functional
[26] = Inhibition of ADR efflux in human KBv200 cells assessed as ADR accumulation at 10 uM incubated for 3 hrs by flow cytometry (reference value: 25.7 %); format: functional; parameters: scale not given: the % may be the effect or the level left

Sequence of Multidrug resistance-associated protein 1 (P33527 whole entry): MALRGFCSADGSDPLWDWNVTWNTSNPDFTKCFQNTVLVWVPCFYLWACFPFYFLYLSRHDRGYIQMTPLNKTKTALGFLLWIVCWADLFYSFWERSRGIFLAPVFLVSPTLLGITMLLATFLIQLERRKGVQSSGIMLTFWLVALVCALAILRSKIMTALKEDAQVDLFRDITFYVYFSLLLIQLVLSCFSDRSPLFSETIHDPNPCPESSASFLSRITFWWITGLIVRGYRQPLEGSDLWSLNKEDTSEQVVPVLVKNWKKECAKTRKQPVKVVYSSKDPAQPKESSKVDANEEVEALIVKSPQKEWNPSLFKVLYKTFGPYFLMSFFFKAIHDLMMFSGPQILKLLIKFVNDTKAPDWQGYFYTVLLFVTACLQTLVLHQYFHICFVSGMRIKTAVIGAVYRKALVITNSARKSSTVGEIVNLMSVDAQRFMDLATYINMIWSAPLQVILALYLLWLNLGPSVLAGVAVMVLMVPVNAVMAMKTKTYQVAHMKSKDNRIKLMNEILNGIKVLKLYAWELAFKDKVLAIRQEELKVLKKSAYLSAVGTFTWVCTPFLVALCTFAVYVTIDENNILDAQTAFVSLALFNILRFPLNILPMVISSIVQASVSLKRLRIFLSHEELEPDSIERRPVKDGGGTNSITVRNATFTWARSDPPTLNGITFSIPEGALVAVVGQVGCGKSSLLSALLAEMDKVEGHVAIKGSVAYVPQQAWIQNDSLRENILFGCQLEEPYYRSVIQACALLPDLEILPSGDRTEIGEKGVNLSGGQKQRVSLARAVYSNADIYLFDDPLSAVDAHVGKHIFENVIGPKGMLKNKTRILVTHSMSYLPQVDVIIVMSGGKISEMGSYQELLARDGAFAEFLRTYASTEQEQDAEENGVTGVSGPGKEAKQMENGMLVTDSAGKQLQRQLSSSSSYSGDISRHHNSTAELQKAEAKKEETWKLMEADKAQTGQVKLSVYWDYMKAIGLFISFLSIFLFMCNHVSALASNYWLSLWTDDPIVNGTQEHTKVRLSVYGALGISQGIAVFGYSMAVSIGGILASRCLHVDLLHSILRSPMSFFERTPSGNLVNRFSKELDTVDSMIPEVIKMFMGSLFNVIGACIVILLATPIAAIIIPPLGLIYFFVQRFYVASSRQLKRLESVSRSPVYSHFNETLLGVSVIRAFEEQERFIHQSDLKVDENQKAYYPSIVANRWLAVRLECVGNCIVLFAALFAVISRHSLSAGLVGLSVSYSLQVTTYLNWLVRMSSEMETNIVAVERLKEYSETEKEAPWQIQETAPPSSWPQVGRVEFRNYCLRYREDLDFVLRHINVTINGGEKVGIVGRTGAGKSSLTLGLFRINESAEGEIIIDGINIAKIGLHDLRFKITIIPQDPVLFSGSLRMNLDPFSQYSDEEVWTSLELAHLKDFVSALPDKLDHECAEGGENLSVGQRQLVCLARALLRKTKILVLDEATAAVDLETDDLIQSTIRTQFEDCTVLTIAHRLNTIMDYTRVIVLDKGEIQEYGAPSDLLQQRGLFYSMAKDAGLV

Q: With `COc1cccc2c1C(=O)c1c(O)c3c(c(O)c1C2=O)C[C@@](O)(C(=O)CO)C[C@@H]3O[C@H]1C[C@H](N)[C@H](O)[C@H](C)O1` [DOXORUBICIN HYDROCHLORIDE] as the compound, how does the IC50 (NCI/ADR-RES [1]) read?
A: 26000 nM

Q: And the IC50 (KBv200 [2])?
A: 373 nM

Q: Which inhibition at 10 µM (KBv200 [3]) does the source give for `CCC1=C[C@@H]2CN(C1)Cc1c([nH]c3ccccc13)[C@@](C(=O)OC)(c1cc3c(cc1OC)N(C)[C@H]1[C@@](O)(C(=O)OC)[C@H](OC(C)=O)[C@]4(CC)C=CCN5CC[C@]31[C@@H]54)C2` [VINORELBINE] here?
A: 4.9%

Q: And the IC50 (NCI/ADR-RES [1])?
A: 3720 nM

Q: What about the IC50 (KBv200 [4]) of the same compound?
A: 298 nM

Q: And the Activity (KBv200 [5])?
A: Active

Q: And the IC50 (KBv200 [2])?
A: 205 nM

Q: What does the source list for `CC(C)[C@H]1NC(=O)CCCCCCCCCCCC(=O)N[C@@H](Cc2ccccc2)COC1=O`?
A: Ratio IC50 (KBv200 [6]): 57.2; inhibition at 10 µM (KBv200 [7]): 68.3%; Activity (KBv200 [8]): 16.7%

Q: With `CC(=O)O[C@H]1C(=O)[C@@]2(C)[C@H]([C@H](OC(=O)c3ccccc3)[C@]3(O)C[C@H](OC(=O)[C@H](O)[C@@H](NC(=O)c4ccccc4)c4ccccc4)C(C)=C1C3(C)C)[C@]1(OC(C)=O)CO[C@@H]1C[C@@H]2O` [PACLITAXEL] as the compound, how does the IC50 (KBv200 [2]) read?
A: 238 nM

Q: Which inhibition (KBv200 [9]) does the source give for `CC[C@H](C)C1OC(=O)[C@H](C(C)C)NC(=O)CCCCCCC[C@H](O)[C@@H](C)C[C@@H]1C` (stereo not given in full) here?
A: inactive

Q: What about the “Ratio IC50” value (NCI/ADR-RES [10]) of the same compound?
A: 23.9

Q: And the Activity [11]?
A: 29%

Q: And the “Ratio IC50” value (NCI/ADR-RES [12])?
A: 109.2

Q: What about the inhibition (KBv200 [13]) of the same compound?
A: Active

Q: And the “Ratio IC50” value (KBv200 [14])?
A: 64

Q: And the “Ratio IC50” value (KBv200 [15])?
A: 49.6

Q: And the “inhibition (INH)” value [16]?
A: Active

Q: What about the inhibition (KBv200 [17]) of the same compound?
A: inactive

Q: What about the Activity [18] of the same compound?
A: 7.4%

Q: And the “inhibition (INH)” value [19]?
A: Active

Q: And the Activity [20]?
A: 91.7%

Q: And the “Ratio IC50” value (KBv200 [6])?
A: 85

Q: What about the “Ratio IC50” value (NCI/ADR-RES [21]) of the same compound?
A: 65.3

Q: What about the Activity (KBv200 [22]) of the same compound?
A: inactive

Q: What about the inhibition (KBv200 [23]) of the same compound?
A: Active

Q: What about the inhibition at 10 µM (KBv200 [7]) of the same compound?
A: 99.5%

Q: What about the inhibition (KBv200 [24]) of the same compound?
A: Active

Q: And the “Ratio IC50” value (KBv200 [25])?
A: 12.4

Q: And the Activity (KBv200 [8])?
A: 9.7%

Q: And the Activity [26]?
A: 90.6%

Q: With `COc1cc2c(cc1OC)CN(CCc1ccc(NC(=O)c3cc(OC)c(OC)cc3NC(=O)c3cnc4ccccc4c3)cc1)CC2` as the compound, how does the inhibition (KBv200 [13]) read?
A: Active

Q: And the inhibition (KBv200 [17])?
A: Active

Q: What about the inhibition (KBv200 [23]) of the same compound?
A: Active
